Laboratory results from US20080058269A1, “Insulin Releasing Peptides” (priority 2003, published 2008).
Read-outs that look alike come from different tables or passages of the source.

Experiments:
BRIN-BD11 cells [1] = type: cell-based, rat; conditions: for Insulin-releasing action in the presence of verapamil (in words): 50 μM verapamil, calcium channel blocker; for Insulin-releasing action in cells depolarised with KCl (in words): 30 mM KCl
Protocol: (§1) Culture of insulin-secreting cells: Clonal rat insulin-secreting BRIN-BD11 cells were cultured in RPMI-1640 tissue culture medium containing 10% (v/v) fetal calf serum, 1% (v/v) antibiotics (100 U/ml penicillin, 0.1 mg/ml streptomycin) and 11.1 mM glucose. The production and characterisation of BRIN-BD11 cells are described elsewhere. Cells were maintained in sterile tissue culture flasks (Corning, Glass Works, UK) at 37° C. in an atmosphere of 5% CO2 and 95% air using LEEC incubator (Laboratory Technical Engineering, Nottingham, UK). In three experimental series using purified peptides from Agalychnis calcarifer, Bombina variegata and Rana saharica cells were cultured overnight with 25 μM forskolin, 10 nM PMA or 0.1 μg/ml pertussis toxin prior to acute tests.
Acute insulin release studies: Insulin release from BRIN-BD11 cells was determined using cell monolayers [McClenaghan N H, Barnett C R, Ah-Sing E, Abdel-Wahab Y H, O'Harte F P, Yoon T W, Swanston-Flatt S K and Flatt P R 1996 Characterization of a novel glucose-responsive insulin-secreting cell line, BRIN-BD11, produced by electrofusion. Diabetes 45 1132-1140]. The cells were harvested with the aid of trypsin/EDTA (Gibco), seeded into 24-multiwell plates (Nunc, Rosklide, Denmark) at a density of […] per well, and allowed to attach overnight. Prior to acute test, cells were preincubated for 40 min at 37° C. in a 1.0 ml Krebs Ringer bicarbonate buffer (115 mM NaCl, 4.7 mM KCl, 1.28 MM CaCl2, 1.2 MM KH2PO4, 1.2 mM MgSO4, 10 mM NaHCO3, 5 g/l bovine serum albumin, pH 7.4) supplemented with 1.1 mM glucose. Test incubations were performed for 20 min at 37° C. using the same buffer supplemented with 5.6 mM glucose in the absence (control) and presence of various venom fractions, peaks (equivalent to approx. 25 μl dried HPLC fraction) or test agents as indicated in the Figures. Cell viability after 20 min test incubations was assessed by modified neutral red assay [Hunt S M, Chrzanowska C, Barnnett C R, Brand H N and Fawell J K 1987 A comparison of in vitro cytotoxicity assays and their application to water samples. Alternatives to Laboratory Animals 15 20-29]. After incubation, aliquots of buffer were removed and stored at −20° C. for insulin radiomnimmunoassay [Flatt P R. and Bailey C J 1981 Abnormal plasma glucose and insulin responses in heterozygous lean (ob/+) mice. Diabetologia 20 573-577].

BRIN-BD11 cells [2] = assay: Acute insulin release from BRIN-BD11 cells cultured overnight with forskolin, PMA or pertussis toxin; type: cell-based, rat; conditions: acute test at 5.6 mM glucose; for Stimulatory effect on insulin secretion in cells cultured overnight with PMA: 10 nM PMA overnight (protein kinase C pathway); for Stimulatory effect on insulin secretion in cells cultured overnight with pertussis toxin: 0.1 μg/ml pertussis toxin overnight (G-protein pathway); for Stimulatory effect on insulin secretion in cells cultured overnight with forskolin: 25 μM forskolin overnight (desensitised cyclic AMP-protein kinase A pathway)
Protocol: FIG. 8 illustrates the dependence of the stimulatory effects of 1653.2 Da purified peptide (peak 1.10) from Agalychnis calcarifer on intracellular pathways mediated by protein kinase A (forskolin), protein kinase C (PMA) or pertussis toxin-sensitive G-proteins. Legend: Acute effects of the 13 amino acid 1653.2 Da purified peptide (peak 1.10) from Agalychnis calcarifer on forskolin and PMA on insulin secretion from BRIN-BD11 cells cultured overnight in the absence (control) and presence of 25 μM forskolin, 10 nM PMA or 0.1 μg/ml pertussis toxin. Acute incubations were performed at 5.6 mM glucose. Values are the mean ±SEM for 8 separate observations. ***P<0.001 compared with 5.6 mM glucose alone under same culture conditions. ^ΔΔΔp<0.001 compared with respective test reagent following control culture.
FIG. 9 illustrates the dependence of the stimulatory effects of 1641.7 Da, 1662.6 Da, 1619.8 Da and 1650.5 Da purified peptides (peaks 21, 22, 23 and 24) from Bombina variegata on intracellular pathways mediated by protein kinase A (forskolin), protein kinase C (PMA) or pertussis toxin-sensitive G-proteins. Legend: Acute effects of 1641.7, 1662.6, 1619.8 and 1650.5 Da purified peptides (peaks 21, 22, 23 and 24) from Bombina variegata on forskolin and PMA on insulin secretion from BRIN-BD11 cells cultured overnight in the absence (control) and presence of 25 μM forskolin, 10 nM PMA or 0.1 μg/ml pertussis toxin. Acute incubations were performed at 5.6 mM glucose. Values are the mean ±SEM for 8 separate observations. **P<0.001 compared with 5.6 mM glucose alone under same culture conditions. ^ΔP<0.001 compared with respective test reagent following control culture.
FIG. 10 illustrates the dependence of the stimulatory effects of 4920.4 Da and 4801.2 Da purified peptides (peaks 5.1 and 5.4) from Rana saharica on intracellular pathways mediated by protein kinase A (forskolin), protein kinase C (PMA) or pertussis toxin-sensitive G-proteins. Legend: Acute effects of 4920.4 and 4801.2 Da purified peptides (peaks 5.1 and 5.4) from Rana saharica on forskolin and PMA on insulin secretion from BRIN-BD11 cells cultured overnight in the absence (control) and presence of 25 μM forskolin, 10 nM PMA or […] pertussis toxin. Acute incubations were performed at 5.6 mM glucose. Values are the mean ±SEM for 8 separate observations. ***P<0.001 compared with 5.6 mM glucose alone under same culture conditions. ^ΔΔP<0.001 compared with respective test reagent following control culture.
as §1
Acute insulin release studies: Insulin release from BRIN-BD11 cells was determined using cell monolayers [McClenaghan N H, Barnett C R, Ah-Sing E, Abdel-Wahab Y H, O'Harte F P, Yoon T W, Swanston-Flatt S K and Flatt P R 1996 Characterization of a novel glucose-responsive insulin-secreting cell line, BRIN-BD11, produced by electrofusion. Diabetes 45 1132-1140]. The cells were harvested with the aid of trypsin/EDTA (Gibco), seeded into 24-multiwell plates (Nunc, Rosklide, Denmark) at a density of […] per well, and allowed to attach overnight. […]

[3] = Table 9, no addition, 5.6 mM glucose, 8 observations, control 1.69 ± 0.17
[4] = Table 9, peptide plus KCl (30 mM), 5.6 mM glucose, 8 observations
[5] = Table 9, peptide plus verapamil (50 μM), 5.6 mM glucose, 8 observations

Substance | Insulin release (ng/10^6 cells/20 mins) (BRIN-BD11 cells [1]) | Insulin-releasing action in the presence of verapamil (in words) (BRIN-BD11 cells [1]) | Insulin-releasing action in cells depolarised with KCl (in words) (BRIN-BD11 cells [1]) | Insulin secretion (ng/10^6 cells/20 min) (BRIN-BD11 cells [1]; [3]) | Insulin secretion (ng/10^6 cells/20 min) (BRIN-BD11 cells [1]; [4]) | Insulin secretion (ng/10^6 cells/20 min) (BRIN-BD11 cells [1]; [5]) | Stimulatory effect on insulin secretion in cells cultured overnight with PMA (BRIN-BD11 cells [2]) | Stimulatory effect on insulin secretion in cells cultured overnight with pertussis toxin (BRIN-BD11 cells [2]) | Stimulatory effect on insulin secretion in cells cultured overnight with forskolin (BRIN-BD11 cells [2]) | Insulin secretion (ng/10^6 cells/20 min) (BRIN-BD11 cells [1]; Table 8, no addition, 5.6 mM glucose, control 1.68 ± 0.16) | Insulin secretion (ng/10^6 cells/20 min) (BRIN-BD11 cells [1]; Table 8, peptide plus KCl (30 mM), 5.6 mM glucose) | Insulin secretion (ng/10^6 cells/20 min) (BRIN-BD11 cells [1]; Table 8, peptide plus verapamil (50 μM), 5.6 mM glucose) | Insulin release (ng/10^6 cells/20 mins) (BRIN-BD11 cells [1]; peptides from Agalychnis calcarifer, 5.6 mM glucose, no-peptide control 1.71 ± 0.12)
Pyr-DSFGNQWARGHFM-amidated (HELM PEPTIDE1{[Glp].D.S.F.G.N.Q.W.A.R.G.H.F.M.[am]}$$$$V2.0; SMILES CSCC[C@H](NC(=O)[C@H](Cc1ccccc1)NC(=O)[C@H](Cc1c[nH]cn1)NC(=O)CNC(=O)[C@H](CCCNC(=N)N)NC(=O)[C@H](C)NC(=O)[C@H](Cc1c[nH]c2ccccc12)NC(=O)[C@H](CCC(N)=O)NC(=O)[C@H](CC(N)=O)NC(=O)CNC(=O)[C@H](Cc1ccccc1)NC(=O)[C@H](CO)NC(=O)[C@H](CC(=O)O)NC(=O)[C@@H]1CCC(=O)N1)C(N)=O) [Peptide 22, peptide from Bombina variegata, 72% ID to bombesin] | 4.75 ± 0.13 ng/10^6 cells/20 mins | not affected | clearly evident | 3.23 ± 0.14 ng/10^6 cells/20 min | 13.69 ± 1.43ΔΔΔ*** ng/10^6 cells/20 min | 3.05 ± 0.09 ng/10^6 cells/20 min | did not affect | did not affect | abolished | – | – | – | –
Pyr-QRLGHQWAVGHLM-amidated (N-terminal pyroglutamate, C-terminal amide) [Peptide 21, peptide from Bombina variegata, (His)^6Bombesin, 93% ID to bombesin] | 4.66 ± 0.24 ng/10^6 cells/20 mins | not affected | clearly evident | 3.65 ± 0.05 ng/10^6 cells/20 min | 13.68 ± 1.42ΔΔΔ*** ng/10^6 cells/20 min | 4.25 ± 0.82 ng/10^6 cells/20 min | did not affect | did not affect | abolished | – | – | – | –
RRKPLFPFIPRPK [Peptide 1.10, 13 amino acid 1653.2 Da purified peptide from Agalychnis calcarifer] | – | not affected | clearly evident | – | – | – | did not affect | did not affect | abolished | 2.75 ± 0.12 ng/10^6 cells/20 min | 16.45 ± 0.10 ΔΔ*** ng/10^6 cells/20 min | 3.54 ± 0.20 ΔΔ*** ng/10^6 cells/20 min | 2.61 ± 0.11 ng/10^6 cells/20 mins
